Like-named read-outs stand apart in the source and are kept apart here.
Columns and labels:
AKR1B10 [1] = target: T1, AKR1B10 (Homo sapiens, UniProt O60218); conditions: Stefek et al.; J. Med Chem. 58: 2649-57, 2015; cited from earlier work
AKR1B1 = AKR1B1 (Homo sapiens, UniProt P15121); assay: Inhibition of aldo-keto reductase AKR1B1; format: biochemical
[2] = Test C: Determination of the distribution ratio in the buffer/octan-1-ol system (shake-flask method); format: physicochemical; conditions: for D (distribution ratio in the buffer/octan-1-ol system): 100 µM, room temperature, mean ± SD, n=3
Description: The partition ratio in the buffer/1-octanol system (system name octan-1-ol), defined as the equilibrium ratio of the total solute concentration in the organic phase to the total solute concentration in the aqueous phase, was determined by the shake-flask method at room temperature. Octan-1-ol saturated with the desired buffer was used as the organic phase for the determination. […] The aqueous solution was shaken with octan-1-ol (20 mL) for 3 hours. Subsequently, the phases were separated in a separatory funnel and the concentration of the solute was determined spectrophotometrically in both phases by means of a calibration curve.

[3] = Test A: Reduction of disulfide of formula I by GSH (cleavage kinetics to form cemtirestat of formula II, absorbance at 302 nm); format: physicochemical; conditions: mean ± SD, n=3; for Final degree of disulfide of formula I reduction: calculated after reaching the maximum in the 60th second, disulfide 50 µM, pH 7.4, 37 °C; for Initial rate of cemtirestat of formula II formation: disulfide of formula I 50 µM, 20 mM phosphate buffer (pH 7.4) at 37 °C
ALR2 = target: T2, ALR2 (Rattus norvegicus, UniProt P07943); assay: Test B: Inhibition of ALR2 by disulfide of formula I in the presence of GSH (NADPH consumption at 340 nm); format: biochemical; conditions: disulfide of formula I 100 µM, 67 mM phosphate buffer (pH 7.4), 37 °C, measured 2 min after GSH addition
T2 construct: The ALR2 enzyme from rat lenses was isolated by the method of Hayman and Kinoshit; from tissue; host or cells: rat eye lenses
Description: Preparation ofALR2. The ALR2 enzyme from rat lenses was isolated by the method of Hayman and Kinoshit (J. Biol. Chem. 240: 877-882, 1965). The homogenate was centrifuged at 10,000 g at 0-4 °C for 20 min. The supernatant was precipitated with saturated ammonium sulfate solution gradually at 40 %, 50 % and finally at 75 % saturation. After the first two precipitations, the supernatant was used. The sediment from the last step, containing ALR2 activity, was resuspended in 75% ammonium sulfate and stored in smaller aliquots in a liquid nitrogen container.
Enzyme test. ALR2 activity was measured spectrophotometrically (Stefek et al.; Bioorg. Med Chem. 16: 4908-4920, 2008) by determining NADPH consumption at 340 nm and expressed as a decrease in optical density (O.D.) / s / mg protein. The reaction mixture contained 4.67 mM D,L-glyceraldehyde as substrate, 0.11 mM NADPH in 67 mM phosphate buffer (pH 7.4), GSH at the desired concentration and 0.05 ml of enzyme preparation a total volume of 1.5 ml. The reference (blank) sample contained all of the above components except D,L-glyceraldehyde substrate and was used to correct for NADPH oxidation unrelated to substrate reduction. Enzyme catalysis was initiated by the addition of D,L-glyceraldehyde and the reaction was monitored for 4 minutes after an initial 1 minute period at 37 °C. The enzyme activity was adjusted by diluting the enzyme preparations with distilled water so that 0.05 ml of the preparation gave an average reaction rate for the control samples in the range of 0.020 ± 0.005 absorbance units / min. The effect of inhibitor on enzyme activity was determined by adding a stock solution of inhibitor in DMSO to the reaction mixture at a final concentration of 100 µM so that the final DMSO concentration was 1%. An inhibitor with the same concentration was added to the reference sample. Enzyme activity was started 2 min after the addition of GSH to the reaction mixture by adding D,L-glyceraldehyde used as a substrate, and I(%) values were determined from the measured absorbance decrease values.

AKR1B10 [4] = target: T1, AKR1B10; assay: Inhibition of aldo-keto reductase AKR1B10; format: biochemical; conditions: meaning of 'does not interact per se'

T1 sequence (O60218 whole entry, species assumed): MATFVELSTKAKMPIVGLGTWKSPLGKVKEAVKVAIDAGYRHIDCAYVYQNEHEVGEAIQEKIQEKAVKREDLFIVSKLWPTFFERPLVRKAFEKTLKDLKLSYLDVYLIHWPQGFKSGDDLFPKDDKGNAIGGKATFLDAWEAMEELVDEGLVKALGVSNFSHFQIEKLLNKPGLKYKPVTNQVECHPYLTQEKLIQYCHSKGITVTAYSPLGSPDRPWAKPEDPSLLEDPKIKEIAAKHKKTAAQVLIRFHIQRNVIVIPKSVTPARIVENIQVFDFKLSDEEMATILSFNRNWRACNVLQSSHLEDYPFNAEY

Row | IC50 (AKR1B1) [µM] | water/octanol distribution ratio compared to cemtirestat of formula II ([2]; acidic environment at pH 4.6, fold higher than cemtirestat of formula II) [fold] | D (distribution ratio in the buffer/octan-1-ol system) ([2]; pH 4.6, acetate buffer (0.1M) + 0.15 M KCl) | D (distribution ratio in the buffer/octan-1-ol system) ([2]; pH 7.4, phosphate buffer (0.1M) + 0.15 M KCl) | Final degree of disulfide of formula I reduction ([3]; GSH 25 µM) [%] | Final degree of disulfide of formula I reduction ([3]; GSH 50 µM) [%] | Final degree of disulfide of formula I reduction ([3]; GSH 100 µM) [%] | inhibition at 100 µM (ALR2; pH 7.4, GSH added 0 µM) [%] | inhibition at 100 µM (ALR2; pH 7.4, GSH added 5 µM) [%] | inhibition at 100 µM (ALR2; pH 7.4, GSH added 10 µM) [%] | inhibition at 100 µM (ALR2; pH 7.4, GSH added 20 µM) [%] | inhibition at 100 µM (ALR2; pH 7.4, GSH added 40 µM) [%] | inhibition at 100 µM (ALR2; pH 7.4, GSH added 100 µM) [%] | inhibition at 100 µM (ALR2; pH 7.4, GSH added 1000 µM) [%] | inhibition at 100 µM (ALR2; pH 7.4, GSH added 5000 µM) [%] | IC50 (AKR1B10 [4]) [µM] | SMILES | IC50 (AKR1B10 [1]) [µM] | Initial rate of cemtirestat of formula II formation ([3]; GSH 25 µM) [nmol/mL/s] | Initial rate of cemtirestat of formula II formation ([3]; GSH 50 µM) [nmol/mL/s] | Initial rate of cemtirestat of formula II formation ([3]; GSH 100 µM) [nmol/mL/s]
1 | – | – | – | – | – | – | – | – | – | – | – | – | – | – | – | – | O=C(O)Cn1c2ccccc2c2nnc(S)nc21 [Cemtirestat of formula II, 2-(3-thioxo-2,3-dihydro-5H-[1,2,4]triazino[5,6-b]indol-5-yl)acetic acid] | 3.69 ± 0.53 | – | – | –
2 | > 100 | ~4 | 0.1136 ± 0.0022 | 0.0095 ± 0.0019 | 39.68 ± 1.59 | 67.70 ± 3.72 | 85.16 ± 5.11 | < 1 | < 1 | 8.9 ± 0.6 | 12.4 ± 1.4 | 16.1 ± 6.9 | 72.6 ± 9.1 | 94 ± 1.6 | 91.1 ± 1.5 | > 100 | O=C(O)Cn1c2ccccc2c2nnc(SSc3nnc4c5ccccc5n(CC(=O)O)c4n3)nc21 [Disulfide of formula I, 2,2'-(disulfanediylbis(5H-[1,2,4]triazino[5,6-b]indole-3,5-diyl))diacetic acid] | – | 4.46 ± 1.68 | 7.30 ± 1.46 | 9.83 ± 2.09

Reference: patent EP4259152B1, “CEMTIRESTAT DISULFIDE, PRODRUG OF ALDO-KETO REDUCTASE INHIBITOR, PREPARATION, PHARMACEUTICAL COMPOSITION AND USE THEREOF” (Centrum Experimentálnej Medicíny SAV, v.v.i., priority 2020, dated 2022)
